Patent US12359230B2, “Microbial oils with high levels of omega-3 fatty acids” (MARA Renewables Corporation, priority 2020, dated 2025)

Experiments:
Type in all cases: cell-based
[1] = tested on: Aurantiochytrium sp. (G3); experiment: Cerulenin dose timing: fatty acid profile of Aurantiochytrium sp. (G3)
Protocol: To determine the ideal time for addition of the fatty acid synthase inhibitor cerulenin without excessive harm such as preventing cell growth, experiments were conducted by adding a set amount of cerulenin at various amounts of time after inoculation. In all experiments, the control experiment was performed with the same medium and growth conditions without the addition of FAS inhibitors.

[2] = tested on: Aurantiochytrium sp. (G3); experiment: Cerulenin concentration: fatty acid profile of Aurantiochytrium sp. (G3); conditions: 20° C.
Protocol: To determine the optimum concentration of cerulenin to provide the best results, a range of concentrations from 1 μM to 40 μM were tested. For consistency, all cerulenin additions were made at 24 hours after inoculation. […] (G3) in varying concentrations of cerulenin at 20° C.

[3] = tested on: Aurantiochytrium sp. (G3); experiment: Cerulenin dosing regimen: fatty acid profile of Aurantiochytrium sp. (G3); conditions: for DHA: DPA / Fatty Acid Content, TFA: 20° C.
Protocol: To investigate the effect of prolonged, repeated exposure to cerulenin, doses were spread equally across 3 or 6 times during the experiment. In each case, the total amount added was equivalent to the corresponding treatments that were added entirely at 24 hours. All additions began at 24 hours after inoculation. In FIGS. 3 and 4, a clear trend of increasing DHA and DPA was visible with both increasing cerulenin concentration and by dosing the cerulenin in multiple equivalent pulses.

[4] = tested on: Aurantiochytrium sp. (G3); experiment: Cerulenin effect on product concentration and yield per carbon consumed
From the text: To assess the impact of the herein described methods for PUFA enhancement strategy, the yields of product (i.e. TFA, DHA or DPA) relative to the amount of carbon assimilated by the G3 cells was investigated. In FIG. 5, the total amount of product synthesized (categorized as total fatty acids (TFA), saturated fatty acids (SFA) or DHA) is depicted. In the presence of fatty acid synthesis inhibitors, dosed at certain frequency and concentration, both TFA and DHA concentration increased while SFA concentration decreased. For example, under the condition where cerulenin was dosed 1 μM each time for 6 times at 12 hour intervals, TFA and DHA increased by 15% and 71%, respectively, when compared to the results of the control experiment (FIG. 5).

[5] = 25 μM cerulenin added 0 hr after inoculation, 20° C.
[6] = 25 μM cerulenin added 24 hr after inoculation, 20° C.
[7] = 25 μM cerulenin added 48 hr after inoculation, from 25° C. data
[8] = cerulenin added 24 hours after inoculation
[9] = 1 μM cerulenin added at 24 hours after inoculation
[10] = 2 μM cerulenin added at 24 hours after inoculation
[11] = 3 μM cerulenin added at 24 hours after inoculation
[12] = 6 μM cerulenin added at 24 hours after inoculation
[13] = 9 μM cerulenin added at 24 hours after inoculation
[14] = 25 μM cerulenin added at 24 hours after inoculation
[15] = 40 μM cerulenin added at 24 hours after inoculation
[16] = 3 μM cerulenin added entirely at 24 hours
[17] = 6 μM cerulenin added entirely at 24 hours
[18] = 9 μM cerulenin added entirely at 24 hours
[19] = 25 μM cerulenin added entirely at 24 hours
[20] = 3 × 1 μM cerulenin, interval 24 hours, starting at 24 hours after inoculation
[21] = 3 × 2 μM cerulenin, interval 24 hours, starting at 24 hours after inoculation
[22] = 3 × 3 μM cerulenin, interval 24 hours, starting at 24 hours after inoculation
[23] = 3 × 8.3 μM cerulenin, interval 24 hours, starting at 24 hours after inoculation
[24] = 6 × 0.5 μM cerulenin, interval 12 hours, starting at 24 hours after inoculation
[25] = 6 × 1 μM cerulenin, interval 12 hours, starting at 24 hours after inoculation
[26] = 6 × 2 μM cerulenin, interval 12 hours, starting at 24 hours after inoculation
[27] = 6 × 3 μM cerulenin, interval 12 hours, starting at 24 hours after inoculation
[28] = 6 × 4.17 μM cerulenin, interval 12 hours, starting at 24 hours after inoculation
[29] = cerulenin 1 μM each time for 6 times at 12 hour intervals

## C/C=C/C/C=C/CCC(=O)[C@H]1O[C@H]1C(N)=O [cerulenin]
[1]; [5]
  DHA: DPA: 6.13
  Fatty Acid Content, TFA: 579.14 mg/g of dry biomass
[1]; [6]
  DHA: DPA: 5.14
  Fatty Acid Content, TFA: 560.24 mg/g of dry biomass
[1]; [7]
  DHA: DPA: 4.58
  Fatty Acid Content, TFA: 641.86 mg/g of dry biomass
[1]; [8]
  C14:0 reduced (% of TFA, vs control): 21.1%
  C16:0 reduced (% of TFA, vs control): 27.9%
[1]; cerulenin added at any addition time after inoculation
  cell growth: not inhibited
[2]; [9]
  DHA: DPA: 8.73
  Fatty Acid Content, TFA: 580.28 mg/g of dry biomass
[2]; [10]
  DHA: DPA: 8.50
  Fatty Acid Content, TFA: 580.90 mg/g of dry biomass
[2]; [11]
  DHA: DPA: 6.77
  Fatty Acid Content, TFA: 658.72 mg/g of dry biomass
[2]; [12]
  DHA: DPA: 6.87
  Fatty Acid Content, TFA: 619.88 mg/g of dry biomass
[2]; [13]
  DHA: DPA: 6.26
  Fatty Acid Content, TFA: 603.79 mg/g of dry biomass
[2]; [14]
  DHA: DPA: 5.27
  Fatty Acid Content, TFA: 578.10 mg/g of dry biomass
[2]; [15]
  DHA: DPA: 4.54
  Fatty Acid Content, TFA: 540.11 mg/g of dry biomass
[3]; [16]
  DHA: DPA: 6.77
  Fatty Acid Content, TFA: 658.72 mg/g of dry biomass
[3]; [17]
  DHA: DPA: 6.87
  Fatty Acid Content, TFA: 619.88 mg/g of dry biomass
[3]; [18]
  DHA: DPA: 6.26
  Fatty Acid Content, TFA: 603.79 mg/g of dry biomass
[3]; [19]
  DHA: DPA: 5.40
  Fatty Acid Content, TFA: 595.96 mg/g of dry biomass
[3]; [20]
  DHA: DPA: 6.67
  Fatty Acid Content, TFA: 636.22 mg/g of dry biomass
[3]; [21]
  DHA: DPA: 6.10
  Fatty Acid Content, TFA: 614.40 mg/g of dry biomass
[3]; [22]
  DHA: DPA: 6.28
  Fatty Acid Content, TFA: 597.67 mg/g of dry biomass
[3]; [23]
  DHA: DPA: 4.75
  Fatty Acid Content, TFA: 617.52 mg/g of dry biomass
[3]; 6 equivalent doses of cerulenin, 12 μM in total
  DHA increase: 51.6%
[3]; [24]
  DHA: DPA: 5.66
  Fatty Acid Content, TFA: 616.79 mg/g of dry biomass
[3]; [25]
  DHA: DPA: 5.12
  Fatty Acid Content, TFA: 620.75 mg/g of dry biomass
[3]; [26]
  DHA: DPA: 4.69
  Fatty Acid Content, TFA: 585.23 mg/g of dry biomass
[3]; [27]
  DHA: DPA: 4.19
  Fatty Acid Content, TFA: 540.81 mg/g of dry biomass
[3]; [28]
  DHA: DPA: 3.91
  Fatty Acid Content, TFA: 538.56 mg/g of dry biomass
[3]; flask experiment, multiple and intermittent dosing of cerulenin (12 μM total, 20° C., FIG. 7)
  DHA %: 68.7%
[3]; repeated cerulenin dosing
  maximal decrease in C14:0: 85.1%
  maximal decrease in C16:0: 83.9%
[3]; repeated dose addition of cerulenin
  impact on total fatty acids: no negative impact
[4]; 6×1 μM cerulenin
  increase in DHA yield (gram product/gram carbon consumed) vs control: 53%
  reduction in SFA yield (gram product/gram carbon consumed) vs control: 64%
[4]; [29]
  DHA concentration increased vs control: 71%
  TFA concentration increased vs control: 15%
